The values below come from article PMC6271701, “An Unusual 2,3-Secotaraxerene and Other Cytotoxic Triterpenoids from Pleiocarpa pycnantha (Apocynaceae) Leaves Collected from Nigeria” (Molecules, 2014).

The GI50 is the concentration at which growth is held to half of that of the control. The IC50 is the concentration at which inhibition is half-maximal. A higher IC50 goes with a need for much substance. What is called melting point is the temperature, or range, at which the solid turns liquid.

For data set [1], the system named is ME 180 cervical tumour cell line. The note with it: read-out: GI50 ME 180; in vitro; cited from earlier work.
Data set [2] has as its system PC3 prostate tumour cell line. The note with it: read-out: GI50 PC3; in vitro; cited from earlier work.
Data set [3] relates to MCF-7 breast tumour cell line. The note with it: read-out: GI50 MCF-7; in vitro; cited from earlier work.
In another data set the test system is HeLa cells. Description: WST-1 cytotoxicity assay, HeLa cells. The class given is cell-based, human. To be noted: for IC50: WST-1 assay, 24 h treatment; for SI HeLa: Selectivity Index = IC50(KMST-6)/IC50(HeLa). Here is the method:
(§1) HeLa, HT-29, MCF-7 and KMST-6 cells were prepared from our laboratory stocks. Briefly, cell monolayers were maintained in Dulbecco’s modified Eagle’s (DMEM, Lonza Group Ltd., Base, Switzerland) medium with phenol red supplemented with 10% foetal bovine serum (FBS, Biochrom AG, Berlin, Germany) and 1% Penicillin–streptomycin (Lonza Group Ltd.). All cells were maintained in a humidified incubated at 37 °C in an atmosphere of 5% CO2. The cells were harvested using trypsin (Lonza Group Ltd.), and viable cell concentrations were determined using the Countess® Automated Cell Counter (Invitrogen, CA, USA). 5 × 10^4 viable cells were added to each well of a 96-well tissue culture plate and incubated overnight at 37 °C under 5% CO2 in a humidified incubator to allow cells to attach to wells.
(§2) Cell viability was measured using the WST-1 assay (Roche Diagnostics GmbH, Mannheim, Germany) as previously described by Ngamwongsatit et al., 2008. Cells were plated in 96-well cell culture plates at a concentration of 5 × 10^4 cells/well in 100 µL culture medium. After 24 h the cells were treated with increasing concentrations of ethanol extract (0–2 mg/mL), fractions (0–2 mg/mL) and purified compounds (0–250 µg/mL) for a further 24 h. The extracts, fractions and compounds were prepared in DMSO and then mixed with the culture medium. The final concentrations of the DMSO were less than 0.1%. Following 24 h treatment, 10 µL of cell proliferation reagent WST-1 was added and the plates were incubated for 4 h at 37 °C under 5% CO2 in a humidified incubator. The plates wereshakenfor 1 min on a shaker and the absorbance of the samples were measured at 450 nm (reference wavelength was 750 nm) on a micro-plate reader. The cell viability was calculated using the following formula: % Viability = ODtreated well − ODblank/ODuntreated well − ODblank(1) IC50 values were calculated using Prism Graph pad software. Triplicate experiments were conducted and the results expressed as mean ± SEM.
(In general: Tetrazolium dyes change colour on reduction, which living cells bring about.)

The next data set concerns MCF-7 cells. Description: WST-1 cytotoxicity assay, MCF-7 cells. In kind it is cell-based, human. To be noted: for IC50: WST-1 assay, 24 h treatment; for SI MCF-7: Selectivity Index = IC50(KMST-6)/IC50(MCF-7). As for the experimental part:
as §1, §2

The next data set concerns KMST-6 cells. Kind of data set: WST-1 cytotoxicity assay, non-cancerous KMST-6 fibroblasts. The class given is cell-based, human. The note with it: WST-1 assay; for IC50: 24 h treatment, non-cancerous fibroblast. As for the experimental part: as §1, §2
A further data set deals with HT-29 cells. Description: WST-1 cytotoxicity assay, HT-29 cells. In kind it is cell-based, human. To be noted: for IC50: WST-1 assay, 24 h treatment; for SI HT-29: Selectivity Index = IC50(KMST-6)/IC50(HT-29). As for the experimental part: as §1, §2
Data set [4] is described as follows: E/Z isomer stability followed by 1H-NMR. The class given is physicochemical. To be noted: 2–3 months under normal working conditions. From the text:
Triterpene esters containing the E-coumaric acid isomer have been reported from natural sources, while, the co-existence of E- and Z-coumaric acid esters of ursolic acid (compounds 2 and 3) in Plumeria obtusa of the same family has been reported once.

For data set [5], the system named is acetyl CoA cholestryl acyl tranferase (ACAT). Also on record: method as in PMID 10425145. The note with it: cited from earlier work.
A short description of data set [6]: Stability of the hydrolysed derivative in organic solvents. The class given is physicochemical. The note with it: organic solvents such as methanol and chloroform. From the text: Compound 4 was isolated as colourless needle-like crystals with molecular formula of C30H48O2 on the basis of TOF-ESI-MS m/z 441.3735[M+H]^+. […] The signal at δ 174.8 (C-2), 77.9 (C-3) in addition to oxygenated methylene protons at δ 3.79 and 4.08 (CH2-3) indicated the presence of a lactone group. […] The NMR data were assigned unambiguously from 2D NMR spectral analysis of compound 4 and its hydrolyzed product 5. The structure was finally established from X-ray diffraction studies. Figure 2 illustrates the perspective view of the molecule with its relative configuration. The compound was thus assigned as 2,3-seco-taraxer-14-en-2,3-lactone and given the name pycanocarpine. After alkaline hydrolysis, compound 4 produced the unstable derivative viz 2,3-seco-3-hydroxy-taraxer-14-en-3-oic acid (5) as an off-white amorphous powder. The TOF-ESI-MS indicated an m/z 459.3889 [M+H]^+. It was noticeable that the free carboxylic and hydroxyl groups would easily reform the lactone ring after a short time in organic solvents such as methanol and chloroform. The NMR data of 5 is similar to the parent compound 4 and is illustrated in Table 1. Minor changes were observed between 4 and 5 for carbons C-11, -23, -24, and -26. The stereochemistry of both compounds, especially ring A, may partially explain this. In 4 the carbonyl group is directed into the same plan similar to C-24, -26 and -11.

The mark [7] stands for this setting: at the dosages used (0–250 µg/mL).

As for `C[C@H]1[C@H](C)CC[C@]2(C(=O)O)CC[C@]3(C)C(=CC[C@@H]4[C@@]5(C)CC[C@H](OC(=O)/C=C\c6ccc(O)cc6)C(C)(C)[C@@H]5CC[C@]43C)[C@H]12` (relative stereo) [cis-3-O-p-hydroxycinnamoyl ursolic acid], the 50% growth inhibitory concentration (GI50) in data set [1], in data set [2] and in data set [3] was approximately 20 µM each time.

`C[C@H]1[C@H](C)CC[C@]2(C(=O)O)CC[C@]3(C)C(=CC[C@@H]4[C@@]5(C)CC[C@H](O)C(C)(C)[C@@H]5CC[C@]43C)[C@H]12` [Compound 1, ursolic acid]: the IC50 with HeLa cells (Homo sapiens, HeLa, 24 h) came to 10 µM; with MCF-7 cells (Homo sapiens, MCF7, 24 h), 20 µM; in the data set with KMST-6 cells (Homo sapiens, Fibroblast, 24 h) it was 100 µM; in the data set with HT-29 cells (Homo sapiens, HT-29, 24 h), 10 µM. The “SI HeLa” value in the data set with HeLa cells turned out to be 10.0. Further, the “SI MCF-7” value with MCF-7 cells was 5.0. Moreover, the “SI HT-29” value with HT-29 cells is 10.0.

As to `CC1CCC2(C(=O)O)CCC3(COC(=O)C=Cc4ccc(O)cc4)C(=CCC4C5(C)CCC(O)C(C)(C)C5CCC43C)C2C1C` (stereo not shown) [Compound 2, 27-p-E-coumaroloxyursolic acid], in the data set with HeLa cells, the “SI HeLa” value amounted to 2. Besides, the IC50 with HeLa cells was 50 µM; in the data set with MCF-7 cells, 60 µM; in the data set on KMST-6 cells, 100 µM; in the data set with HT-29 cells, 100 µM. Further, the “SI MCF-7” value with MCF-7 cells worked out at 1.7. For the same molecule, the “SI HT-29” value in the data set with HT-29 cells is given as 1. In addition, the “E/Z isomerization of the isomers (1H-NMR)” value in [4] is listed as “did not observe any such change”.

Regarding `CC1CCC2(C(=O)O)CCC3(COC(=O)C=Cc4ccc(O)cc4)C(=CCC4C5(C)CCC(O)C(C)(C)C5CCC43C)C2C1C` (stereo not shown) [Compound 3, 27-p-Z-coumaroyloxyursolic acid], in the data set with HeLa cells, the “SI HeLa” value turned out to be 1.5 and half-maximal inhibition (IC50) required 200 µM. In the data set with MCF-7 cells, the “SI MCF-7” value came to 1.7 and the IC50 worked out at 180 µM. Also, in the data set on KMST-6 cells, the “cytotoxicity to non-cancerous cell line KMST-6 (in words)” value is reported as “non- cytotoxic” and half-maximal inhibition (IC50) was put at 300 µM. For the same molecule, in [5], the “activity against ACAT (in words)” value was “potent activity”. Besides, in the data set with HT-29 cells, the “SI HT-29” value is on record as 1.3 and it took 230 µM to reach half-maximal inhibition (IC50). In addition, the “E/Z isomerization of the isomers (1H-NMR)” value in data set [4] was “did not observe any such change”.

For the molecule `CC1(C)CCC2(C)CC=C3C(C)(CCC4C3(C)CCC3C(C)(C)COC(=O)CC34C)C2C1` (stereo not shown) [Compound 4, 2,3-seco-taraxer-14-en-2,3-lactone], the melting point lay in the range of 246 to 249 °C. In the data set on HeLa cells (Homo sapiens, HeLa, 24 h), this molecule yielded an IC50 of more than 600 µM. Also, in the data set with HeLa cells (setting [7]), the “cytotoxicity on HeLa cells (in words)” value is reported as “did not show cytotoxicity”. 20 µM corresponded to half-maximal inhibition in the data set on MCF-7 cells (Homo sapiens, MCF7, 24 h) (IC50). In addition, in the data set on MCF-7 cells, the “SI MCF-7” value is recorded as more than 30. In the data set on KMST-6 cells (Homo sapiens, Fibroblast, 24 h), this molecule had an IC50 of more than 600 µM. For the same molecule, the “cytotoxicity to non-cancerous cell line KMST-6 (in words)” value in the data set on KMST-6 cells is “non- cytotoxic”. The molecule further displayed a half-inhibitory concentration (IC50) in the data set with HT-29 cells (Homo sapiens, HT-29, 24 h) of more than 600 µM. Besides, in the data set with HT-29 cells (setting [7]), the “cytotoxicity on HT-29 cells (in words)” value was “did not show cytotoxicity”.

The molecule `CC1(C)CC[C@]2(C)CC=C3[C@]4(C)CCC(C(C)(C)CO)[C@](C)(CC(=O)O)C4CC[C@@]3(C)C2C1` (stereo partly shown) [Compound 5, 2,3-seco-3-hydroxy-taraxer-14-en-3-oic acid] registered a melting point of 237 to 241 °C. This molecule also came in with an IC50 in the data set on HeLa cells (Homo sapiens, HeLa, 24 h) of 180 µM. In addition, in the data set with HeLa cells, the “SI HeLa” value is listed as 0.06. In addition, in the data set with MCF-7 cells (Homo sapiens, MCF7, 24 h), the IC50 came out at 10 µM. Besides, the “SI MCF-7” value in the data set with MCF-7 cells worked out at 1. Further, the midpoint of inhibition in the data set with KMST-6 cells (Homo sapiens, Fibroblast, 24 h), the IC50, lay at 10 µM. Moreover, in data set [6], the “stability (re-lactonisation)” value was “unstable”. This molecule also yielded a half-maximal inhibitory concentration (IC50) with HT-29 cells (Homo sapiens, HT-29, 24 h) of 170 µM. Also, the “SI HT-29” value in the data set with HT-29 cells was determined as 0.06.
